# Measurements taken from patent US5045222A, “Use of triacylated ethanolamines as liquid, water-miscible peroxide activators” (Hoechst Aktiengesellschaft, priority 1988, dated 1991).
# Columns and labels:
# [1] = Determination of the water solubility of activators; format: physicochemical; conditions: for Water solubility / miscibility with water (words): in words, temperature not stated
# Experimental: The water solubility of N,N,O-triacetylethanolamine (TAEA) and ethylidene benzoate acetate (EBA) was determined by known methods.
# [2] = background discussion; cited from earlier work
# [3] = Perhydrolysis rate of dissolved activator (titration of total active oxygen and peracid); conditions: for time required for 90% conversion of activator: predissolved activator; for Perhydrolysis rate / release of peracid: in words, with hydrogen peroxide or percompounds
# Experimental: The experimental determination of the perhydrolysis rate of the activators TAEA (triacetylethanolamine), TAED (tetraacetylethylenediamine) and isonobs (sodium isononanoyloxybenzenesulfonate) was carried out under wash conditions in a 2 1 beaker in a thermostat. An electrical stirrer ensured uniform stirring of a 2 percent strength solution of an IEC standard detergent composition, to which perborate had been added together with 20 ml of a cherry juice solution as a bleachable stain.
# The activators were predissolved in a little water and added to the abovementioned temperature controlled washing liquor. At each set time interval (1-5 minutes) a 50 ml sample was removed and titrated for total active oxygen and peracid.
# pH dependence of perhydrolysis of dissolved bleach activators at 22° C.; time required [min] for 90% conversion of activator: […]
# [4] = Washing tests in Launder-O-meter at room temperature, tea stain; conditions: 25° C.
# [5] = Wash tests in Launder-O-meter at 60° C., tea stain
compound,measurement,setting,value
"CC(=O)OC(C)OC(=O)c1ccccc1 (stereo not shown) [EBA, ethylidene benzoate acetate]",Water solubility,[1]; 23° C.,700 µg/mL
same,Water solubility,[1]; 37° C.,800 µg/mL
same,"Solubility in water (words, prior-art activator)",[2],limited solubility in water
"CC(CC(=O)Oc1ccc(S(=O)(=O)[O-])cc1)CC(C)(C)C.[Na+] (stereo not shown) [Isonobs, sodium isononanoyloxybenzenesulfonate]",time required for 90% conversion of activator,"[3]; pH 9, 22° C.",> 30 min
same,time required for 90% conversion of activator,"[3]; pH 10, 22° C.",11 min
same,time required for 90% conversion of activator,"[3]; pH 11, 22° C.",1.5 min
"CC(=O)OCCN(C(C)=O)C(C)=O [TAEA, N,N,O-triacetylethanolamine]",bleaching effect,[4]; tea and red wine stains,superior bleaching effect
same,"Water solubility (infinite, unit not given)",[1]; 23° C.,.infin.
same,"Water solubility (infinite, unit not given)",[1]; 37° C.,.infin.
same,Water solubility / miscibility with water (words),[1],complete miscibility of the compound with water
same,Water solubility / miscibility with water (words),[1]; listed as triacetylethanolamine,has the best water solubility and is miscible with water in any proportion
same,bleaching performance,[5]; tea and red wine stains,superior in bleaching performance to previously known EDA and to non-liquid DALEA
same,Perhydrolysis rate / release of peracid,[3],"releases one mole of peracetic acid very rapidly, in fact as rapidly as predissolved TAED"
same,Perhydrolysis rate / release of peracid,[3]; listed as Triacetylethanolamine (TAEA),readily reacts in aqueous solution with hydrogen peroxide or inorganic persalts to form peracetic acid
same,time required for 90% conversion of activator,"[3]; pH 9, 22° C.",12 min
same,time required for 90% conversion of activator,"[3]; pH 10, 22° C.",7 min
same,time required for 90% conversion of activator,"[3]; pH 11, 22° C.",1 min
"CC(=O)N(CCN(C(C)=O)C(C)=O)C(C)=O [TAED, tetraacetylethylenediamine]",time required for 90% conversion of activator,"[3]; pH 9, 22° C.",15 min
same,time required for 90% conversion of activator,"[3]; pH 10, 22° C.",7 min
same,time required for 90% conversion of activator,"[3]; pH 11, 22° C.",1 min
sodium perborate [PB],Reflectance,"[4]; tea stain, 15 minutes, 3% activator and 10% sodium perborate",52.8
same,Reflectance values,"[5]; tea stain, 30 minutes, 25 mg active oxygen per liter, 1.5 g IEC basic washing powder per liter",62.9
